Measured values reported in ChEMBL document CHEMBL5154936, “Scaffold Hopping Strategy to Identify Prostanoid EP4 Receptor Antagonists for Cancer Immunotherapy” (J Med Chem, 2022).
One block for each molecule: values may come before it.

Tests used:
CYP2D6 = CYP2D6 (Homo sapiens, UniProt P10635); assay: Inhibition of CYP2D6 (unknown origin) at 20 uM; type: ADME
[1] = Metabolic stability in mouse liver microsomes assessed as parent compound remaining at 10 uM measured after 60 mins; type: ADME, Microsome; conditions: read-out: Stability
Panc02 = assay: Cytotoxicity against mouse Panc02 cells assessed as reduction in cell viability incubated for 72 hrs by CCK-8 assay; conditions: Panc02, 72 h
[2] = Metabolic stability in human liver microsomes assessed as intrinsic clearance; type: ADME, Microsome; conditions: read-out: CLH
[3] = target: Prostaglandin E2 receptor EP4 subtype (Mus musculus, UniProt P32240); assay: Antagonist activity at mouse EP4 receptor transfected in CHO/Galpha16 cells preincubated for 15 mins followed by PGE2 addition by calcium flux assay; type: functional, cell-based
Prostaglandin E2 receptor EP4 subtype (Mus musculus, UniProt P32240), sequence (P32240 whole entry): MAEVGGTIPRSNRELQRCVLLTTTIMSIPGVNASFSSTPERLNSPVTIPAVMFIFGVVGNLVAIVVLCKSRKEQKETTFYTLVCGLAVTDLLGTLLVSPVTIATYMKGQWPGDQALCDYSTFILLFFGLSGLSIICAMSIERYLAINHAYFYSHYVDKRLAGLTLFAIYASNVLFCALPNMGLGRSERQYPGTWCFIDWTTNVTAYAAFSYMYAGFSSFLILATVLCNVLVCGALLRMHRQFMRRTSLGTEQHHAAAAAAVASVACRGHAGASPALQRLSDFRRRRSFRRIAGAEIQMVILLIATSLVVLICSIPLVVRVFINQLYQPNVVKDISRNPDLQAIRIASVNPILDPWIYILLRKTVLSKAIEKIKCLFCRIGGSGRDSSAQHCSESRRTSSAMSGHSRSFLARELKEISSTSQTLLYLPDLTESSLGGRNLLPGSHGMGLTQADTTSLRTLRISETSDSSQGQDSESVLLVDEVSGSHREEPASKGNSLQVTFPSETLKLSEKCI

[4] = target: Prostaglandin E2 receptor EP4 subtype (Homo sapiens, UniProt P35408); assay: Antagonist activity at human EP4 receptor transfected in CHO/Galpha16 cells preincubated for 15 mins followed by PGE2 addition by calcium flux assay; type: functional, cell-based
Prostaglandin E2 receptor EP4 subtype (Homo sapiens, UniProt P35408), sequence (P35408 whole entry): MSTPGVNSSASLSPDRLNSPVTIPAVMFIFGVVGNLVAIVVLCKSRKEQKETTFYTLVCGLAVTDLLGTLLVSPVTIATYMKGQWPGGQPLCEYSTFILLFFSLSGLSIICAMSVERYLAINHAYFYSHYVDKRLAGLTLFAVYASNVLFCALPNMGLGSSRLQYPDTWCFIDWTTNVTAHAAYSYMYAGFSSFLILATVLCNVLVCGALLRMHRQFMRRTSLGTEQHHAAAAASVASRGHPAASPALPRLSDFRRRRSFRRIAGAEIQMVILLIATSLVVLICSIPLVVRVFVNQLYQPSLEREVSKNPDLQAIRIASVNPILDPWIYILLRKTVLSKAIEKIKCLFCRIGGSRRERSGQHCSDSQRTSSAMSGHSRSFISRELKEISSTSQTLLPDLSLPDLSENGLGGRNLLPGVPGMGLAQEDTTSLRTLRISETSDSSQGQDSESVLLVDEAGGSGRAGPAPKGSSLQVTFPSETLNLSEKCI

[5] = target: T1, Prostaglandin E2 receptor EP3 subtype (Homo sapiens, UniProt P43115); assay: Antagonist activity at human EP3 receptor transfected in CHO/Galpha16 cells preincubated for 15 mins followed by PGE2 addition by calcium flux assay; type: functional, cell-based
T1 sequence (P43115 whole entry): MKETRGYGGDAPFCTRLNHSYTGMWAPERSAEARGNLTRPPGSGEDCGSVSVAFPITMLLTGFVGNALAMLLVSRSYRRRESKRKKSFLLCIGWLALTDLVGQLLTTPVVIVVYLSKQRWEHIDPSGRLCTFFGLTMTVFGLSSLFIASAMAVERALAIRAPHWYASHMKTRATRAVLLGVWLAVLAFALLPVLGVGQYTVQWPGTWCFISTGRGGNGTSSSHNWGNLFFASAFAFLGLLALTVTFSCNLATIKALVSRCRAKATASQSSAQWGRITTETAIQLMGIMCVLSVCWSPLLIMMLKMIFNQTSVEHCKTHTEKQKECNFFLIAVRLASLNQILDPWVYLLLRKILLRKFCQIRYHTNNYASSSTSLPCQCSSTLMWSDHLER

[6] = target: Prostaglandin E2 receptor EP2 subtype (Homo sapiens, UniProt P43116); assay: Antagonist activity at human EP2 receptor transfected in CHO/Galpha16 cells preincubated for 15 mins followed by PGE2 addition by calcium flux assay; type: functional, cell-based
Prostaglandin E2 receptor EP2 subtype, sequence (P43116 whole entry): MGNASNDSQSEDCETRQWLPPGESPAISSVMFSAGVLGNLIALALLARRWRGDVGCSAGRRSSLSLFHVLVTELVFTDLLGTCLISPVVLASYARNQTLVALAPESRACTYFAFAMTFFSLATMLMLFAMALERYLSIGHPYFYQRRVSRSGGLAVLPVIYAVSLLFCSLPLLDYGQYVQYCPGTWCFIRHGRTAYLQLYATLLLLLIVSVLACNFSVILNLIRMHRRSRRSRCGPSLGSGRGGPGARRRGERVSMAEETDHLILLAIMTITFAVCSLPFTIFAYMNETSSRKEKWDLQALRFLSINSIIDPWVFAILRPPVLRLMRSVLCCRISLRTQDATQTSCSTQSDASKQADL

CYP2B6 = target: T2, CYP2B6 (Homo sapiens, UniProt P20813); assay: Inhibition of CYP2B6 (unknown origin) at 20 uM; type: ADME
T2 sequence (P20813 whole entry): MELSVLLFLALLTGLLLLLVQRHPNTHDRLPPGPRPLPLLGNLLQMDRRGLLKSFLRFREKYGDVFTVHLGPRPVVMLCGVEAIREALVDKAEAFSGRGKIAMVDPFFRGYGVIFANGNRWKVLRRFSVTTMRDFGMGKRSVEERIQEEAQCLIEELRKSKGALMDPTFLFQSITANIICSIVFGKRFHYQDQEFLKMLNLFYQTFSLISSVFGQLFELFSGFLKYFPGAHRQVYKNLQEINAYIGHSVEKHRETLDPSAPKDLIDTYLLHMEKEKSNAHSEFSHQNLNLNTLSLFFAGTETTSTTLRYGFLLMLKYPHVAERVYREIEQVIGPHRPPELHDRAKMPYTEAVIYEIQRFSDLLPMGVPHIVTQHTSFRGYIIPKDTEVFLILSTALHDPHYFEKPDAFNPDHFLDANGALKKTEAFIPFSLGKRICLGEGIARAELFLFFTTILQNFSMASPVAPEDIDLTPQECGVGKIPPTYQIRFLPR

CYP2C9 = CYP2C9 (Homo sapiens, UniProt P11712); assay: Inhibition of CYP2C9 (unknown origin) at 20 uM; type: ADME
CYP2C9, sequence (P11712 whole entry): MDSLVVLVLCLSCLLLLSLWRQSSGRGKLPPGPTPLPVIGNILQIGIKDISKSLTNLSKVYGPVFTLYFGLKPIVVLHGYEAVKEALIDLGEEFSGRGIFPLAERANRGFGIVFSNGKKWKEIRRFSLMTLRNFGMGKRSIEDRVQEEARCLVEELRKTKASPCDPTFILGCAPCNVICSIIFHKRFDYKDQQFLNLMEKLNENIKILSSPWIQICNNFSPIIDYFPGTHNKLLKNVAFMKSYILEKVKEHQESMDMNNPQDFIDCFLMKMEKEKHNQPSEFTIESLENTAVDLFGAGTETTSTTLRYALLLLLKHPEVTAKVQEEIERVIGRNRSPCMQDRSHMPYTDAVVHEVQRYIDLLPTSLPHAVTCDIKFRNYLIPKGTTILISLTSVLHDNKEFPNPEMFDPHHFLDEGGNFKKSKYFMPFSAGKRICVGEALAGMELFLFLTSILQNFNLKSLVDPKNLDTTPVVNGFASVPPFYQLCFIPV

[7] = Cytotoxicity against HEK293 cells assessed as reduction in cell viability incubated for 72 hrs by CCK-8 assay; type: toxicity, cell-based; conditions: human
EMT6 = assay: Cytotoxicity against mouse EMT6 cells assessed as reduction in cell viability incubated for 72 hrs by CCK-8 assay; conditions: EMT6, 72 h
CT26 = assay: Cytotoxicity against mouse CT26 cells assessed as reduction in cell viability incubated for 72 hrs by CCK-8 assay; conditions: CT26, 72 h
[8] = Metabolic stability in human liver microsomes assessed as half life; type: ADME, Microsome
[9] = Metabolic stability in mouse liver microsomes assessed as intrinsic clearance; type: ADME, Microsome; conditions: read-out: CLH
[10] = target: T3, Prostaglandin E2 receptor EP1 subtype (Homo sapiens, UniProt P34995); assay: Antagonist activity at human EP1 receptor transfected in CHO/Galpha16 cells preincubated for 15 mins followed by PGE2 addition by calcium flux assay; type: functional, cell-based
T3 sequence (P34995 whole entry): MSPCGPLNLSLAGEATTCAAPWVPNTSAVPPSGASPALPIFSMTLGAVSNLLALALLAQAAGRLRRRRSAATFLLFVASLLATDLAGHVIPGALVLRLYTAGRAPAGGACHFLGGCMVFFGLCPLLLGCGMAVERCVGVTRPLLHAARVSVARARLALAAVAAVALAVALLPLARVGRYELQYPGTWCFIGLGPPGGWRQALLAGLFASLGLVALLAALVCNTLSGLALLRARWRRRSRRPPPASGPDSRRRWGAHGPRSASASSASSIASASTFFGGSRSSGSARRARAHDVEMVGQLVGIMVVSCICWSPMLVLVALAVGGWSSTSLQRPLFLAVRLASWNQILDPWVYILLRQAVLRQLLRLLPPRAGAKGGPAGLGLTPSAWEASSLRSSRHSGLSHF

CYP2E1 = CYP2E1 (Homo sapiens, UniProt P05181); assay: Inhibition of CYP2E1 (unknown origin) at 20 uM; type: ADME
CYP2E1, sequence (P05181 whole entry): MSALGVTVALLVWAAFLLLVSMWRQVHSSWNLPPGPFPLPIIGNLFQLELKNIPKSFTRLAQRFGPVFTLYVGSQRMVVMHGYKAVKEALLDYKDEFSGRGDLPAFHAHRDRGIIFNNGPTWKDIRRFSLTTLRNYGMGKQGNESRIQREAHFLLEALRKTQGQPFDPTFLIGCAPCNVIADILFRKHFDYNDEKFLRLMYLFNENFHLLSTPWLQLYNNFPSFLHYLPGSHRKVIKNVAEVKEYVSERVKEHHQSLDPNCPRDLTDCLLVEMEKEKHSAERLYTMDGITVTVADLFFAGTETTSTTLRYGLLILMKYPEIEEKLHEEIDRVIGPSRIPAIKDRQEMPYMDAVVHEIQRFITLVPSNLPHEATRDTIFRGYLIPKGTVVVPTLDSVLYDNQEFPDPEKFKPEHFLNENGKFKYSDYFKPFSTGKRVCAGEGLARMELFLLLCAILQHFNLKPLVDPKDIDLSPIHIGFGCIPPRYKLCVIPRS

CYP1A2 = target: T4, CYP1A2 (Homo sapiens, UniProt P05177); assay: Inhibition of CYP1A2 (unknown origin) at 20 uM; type: ADME
T4 sequence (P05177 whole entry): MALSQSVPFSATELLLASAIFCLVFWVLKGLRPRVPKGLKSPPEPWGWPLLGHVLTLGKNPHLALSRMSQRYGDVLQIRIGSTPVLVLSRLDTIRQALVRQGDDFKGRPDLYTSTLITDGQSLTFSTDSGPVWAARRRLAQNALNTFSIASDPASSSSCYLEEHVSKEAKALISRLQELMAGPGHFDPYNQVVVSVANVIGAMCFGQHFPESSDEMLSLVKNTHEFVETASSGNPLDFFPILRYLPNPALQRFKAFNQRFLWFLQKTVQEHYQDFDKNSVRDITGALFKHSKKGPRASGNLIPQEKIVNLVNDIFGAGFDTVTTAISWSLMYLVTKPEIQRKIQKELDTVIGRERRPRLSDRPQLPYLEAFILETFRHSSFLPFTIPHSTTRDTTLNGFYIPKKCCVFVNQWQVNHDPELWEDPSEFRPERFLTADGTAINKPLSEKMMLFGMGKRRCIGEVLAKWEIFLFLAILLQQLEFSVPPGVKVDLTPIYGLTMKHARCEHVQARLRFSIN

[11] = Metabolic stability in human liver microsomes assessed as parent compound remaining at 10 uM measured after 60 mins; type: ADME, Microsome; conditions: read-out: Stability
[12] = Metabolic stability in mouse liver microsomes assessed as half life; type: ADME, Microsome
3LL cell line = assay: Cytotoxicity against mouse 3LL cells assessed as reduction in cell viability incubated for 72 hrs by CCK-8 assay

CYP2D6, sequence (P10635 whole entry): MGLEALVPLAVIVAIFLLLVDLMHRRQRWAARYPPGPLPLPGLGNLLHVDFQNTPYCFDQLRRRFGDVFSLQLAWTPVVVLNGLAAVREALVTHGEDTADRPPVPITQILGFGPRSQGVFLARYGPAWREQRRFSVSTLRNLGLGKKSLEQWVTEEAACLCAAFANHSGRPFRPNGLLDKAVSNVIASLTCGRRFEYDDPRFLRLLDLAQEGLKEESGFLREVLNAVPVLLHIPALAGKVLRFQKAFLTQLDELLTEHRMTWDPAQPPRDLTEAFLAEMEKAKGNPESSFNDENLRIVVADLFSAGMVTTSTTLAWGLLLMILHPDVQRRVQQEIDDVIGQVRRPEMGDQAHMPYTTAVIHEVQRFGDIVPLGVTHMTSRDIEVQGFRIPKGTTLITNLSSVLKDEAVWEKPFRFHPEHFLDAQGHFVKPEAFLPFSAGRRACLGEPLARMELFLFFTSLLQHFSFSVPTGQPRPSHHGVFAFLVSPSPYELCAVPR

inhibition at 20 µM (CYP2D6): 62% | remaining at 1 h, 10 µM [1]: 87.9% | microsomal CLint [2]: < 9.6 µL/min/mg | IC50 [3]: 336 nM | IC50 [4]: 2.1 nM | IC50 [5]: > 10000 nM | IC50 [6]: > 10000 nM | inhibition at 20 µM (CYP2B6): 68% | inhibition at 20 µM (CYP2C9): 24% | half-life [8]: > 145 min | microsomal CLint [9]: < 9.6 µL/min/mg | IC50 [10]: > 10000 nM | inhibition at 20 µM (CYP2E1): 26% | inhibition at 20 µM (CYP1A2): 69% | remaining at 1 h, 10 µM [11]: 90% | half-life [12]: > 145 min
Structure (SMILES): C[C@H](NC(=O)c1c(Cc2ccc(C(F)(F)F)cc2)sc2c1CCOC2)c1ccc(C(=O)O)cc1
IC50 (Panc02): > 100000 nM | IC50 at 72 h [7]: > 100000 nM | IC50 (EMT6): > 100000 nM | IC50 (CT26): > 100000 nM | IC50 (3LL cell line): > 100000 nM

IC50 [4]: > 1000 nM
Structure (SMILES): CC(=O)N1CCc2c(sc(CCc3ccc(F)cc3)c2C(=O)N[C@@H](C)c2ccc(C(=O)O)cc2)C1

IC50 [4]: 187 nM
Structure (SMILES): CON(C)C(=O)c1ccc([C@H](C)NC(=O)c2c(Cc3ccc(F)cc3)sc3c2CCOC3)cc1

IC50 [4]: > 1000 nM
Structure (SMILES): C[C@H](NC(=O)c1c(/N=C/c2cccc(C(F)(F)F)c2)sc2c1CCOC2)c1ccc(C(=O)O)cc1

IC50 [4]: 30.3 nM
Structure (SMILES): O=C(NCC1CCC(C(=O)O)CC1)c1c(Cc2ccc(F)cc2)sc2c1CCOC2 (centres undefined)

IC50 [4]: 74.9 nM
Structure (SMILES): C[C@H](NC(=O)c1c(Cc2ccc(F)cc2)sc2c1CCOC2)c1ccc(C(=O)NN)cc1

remaining at 1 h, 10 µM [1]: 6.8% | microsomal CLint [2]: 221 µL/min/mg | IC50 [3]: 19.8 nM | IC50 [5]: > 10000 nM | IC50 [6]: > 10000 nM | half-life [8]: 6.3 min | microsomal CLint [9]: 86.1 µL/min/mg | IC50 [10]: > 10000 nM | remaining at 1 h, 10 µM [11]: 12.2% | half-life [12]: 16.1 min
Structure (SMILES): C[C@H](NC(=O)c1c(CCc2ccc(F)cc2)sc2c1CCC2)c1ccc(C(=O)O)cc1

IC50 [4]: 2.7 nM
Structure (SMILES): CC(C)c1ccc(Cc2sc3c(c2C(=O)N[C@@H](C)c2ccc(C(=O)O)cc2)CCOC3)cc1

IC50 [4]: 9.5 nM
Structure (SMILES): C[C@H](NC(=O)c1c(Cc2ccc(C(C)(C)C)cc2)sc2c1CCOC2)c1ccc(C(=O)O)cc1

IC50 [4]: 648 nM
Structure (SMILES): CCC1CCc2c(sc(CCc3ccc(F)cc3)c2C(=O)N[C@@H](C)c2ccc(C(=O)O)cc2)C1 (some centres undefined)

IC50 [4]: 5.1 nM
Structure (SMILES): C[C@H](NC(=O)c1c(Cc2cccc(F)c2)sc2c1CCOC2)c1ccc(C(=O)O)cc1

inhibition at 20 µM (CYP2D6): 76% | remaining at 1 h, 10 µM [1]: 75.7% | microsomal CLint [2]: 28.5 µL/min/mg | IC50 [3]: 50.1 nM | IC50 [4]: 19.1 nM | IC50 [5]: > 10000 nM | IC50 [6]: > 10000 nM | inhibition at 20 µM (CYP2B6): 76% | inhibition at 20 µM (CYP2C9): 58% | half-life [8]: 48.6 min | microsomal CLint [9]: < 9.6 µL/min/mg | IC50 [10]: > 10000 nM | inhibition at 20 µM (CYP2E1): 39% | inhibition at 20 µM (CYP1A2): 88% | remaining at 1 h, 10 µM [11]: 40.7% | half-life [12]: > 145 min
Structure (SMILES): C[C@H](NC(=O)c1c(CCc2ccc(F)cc2)sc2c1CCOC2)c1ccc(C(=O)O)cc1
IC50 (Panc02): > 100000 nM | IC50 at 72 h [7]: > 100000 nM | IC50 (EMT6): > 100000 nM | IC50 (CT26): > 100000 nM | IC50 (3LL cell line): > 100000 nM

IC50 [4]: 12.4 nM
Structure (SMILES): COc1cccc(C#Cc2sc3c(c2C(=O)N[C@@H](C)c2ccc(C(=O)O)cc2)CCOC3)c1

IC50 [4]: 6.6 nM
Structure (SMILES): C[C@H](NC(=O)c1c(Cc2ccc(OC(F)(F)F)c(Cl)c2)sc2c1CCOC2)c1ccc(C(=O)O)cc1

IC50 [4]: 36.2 nM
Structure (SMILES): C[C@H](NC(=O)c1c(CCc2ccc(F)cc2)sc2c1CC(C)(C)OC2)c1ccc(C(=O)O)cc1
